Test results as given in US6921770B2 (priority 2000, dated 2005).

What follows are molecules tested on rice blast fungi. Settings: not given.
Assay type: in vivo, Pyricularia grisea

Compared with `Br.Cn1c(CC(=O)Nc2ccccc2)csc1=Nc1ccc(F)c(Cl)c1` [Compound 43, 2-(3-chloro-4-fluorophenylimino)-3-methyl-4-(N-phenylcarbamoylmethyl)-1,3-thiazol-4-ine hydrobromide], `Br.Cc1ccc(NC(=O)Cc2csc(=Nc3ccc(F)c(Cl)c3)n2C)cc1` [Compound 51, 2-(3-chloro-4-fluorophenylimino)-3-methyl-4-[N-(4-methylphenyl)carbamoylmethyl]-1,3-thiazol-4-ine hydrobromide] is higher in “Inhibiting Ratio (%) (at 250 ppm)” value: 93% for the first, 99% for the second.

Compared with `Br.Cc1ccc(F)c(N=c2scc(CC(=O)Nc3ccccc3)n2C)c1` [Compound 44, 2-(2-fluoro-5-methylphenylimino)-3-methyl-4-(N-phenylcarbamoylmethyl)-1,3-thiazol-4-ine hydrobromide], `Br.Cc1ccc(NC(=O)Cc2csc(=Nc3cc(C)ccc3F)n2C)cc1` [Compound 52, 2-(2-fluoro-5-methylphenylimino)-3-methyl-4-[N-(4-methylphenyl)carbamoylmethyl]-1,3-thiazol-4-ine hydrobromide] is higher in “Inhibiting Ratio (%) (at 250 ppm)” value: 95% for the first, 99% for the second.

First: Br.Cn1c(CC(=O)Nc2ccccc2)csc1=Nc1cc(C(F)(F)F)cc(C(F)(F)F)c1 [Compound 45, 2-(3,5-ditrifluoromethylphenylimino)-3-methyl-4-(N-phenylcarbamoylmethyl)-1,3-thiazol-4-ine hydrobromide]
Second: Br.Cc1ccc(NC(=O)Cc2csc(=Nc3cc(C(F)(F)F)cc(C(F)(F)F)c3)n2C)cc1 [Compound 54, 2-(3,5-ditrifluoromethylphenylimino)-3-methyl-4-[N-(4-methylphenyl)carbamoylmethyl]-1,3-thiazol-4-ine hydrobromide]
The “Inhibiting Ratio (%) (at 250 ppm)” value of the first is lower: 93% for the first, 96% for the second.

Compared with `Br.Cc1ccc(NC(=O)Cc2csc(=Nc3ccc(C#N)cc3)n2C)cc1` [Compound 46], `Br.Cn1c(CC(=O)Nc2cccc(Cl)c2)csc1=Nc1ccc(C#N)cc1` [Compound 57, 2-(4-cyanophenylimino)-3-methyl-4-[N-(3-chlorophenyl)carbamoylmethyl]-1,3-thiazol-4-ine hydrobromide] is lower in “Inhibiting Ratio (%) (at 250 ppm)” value: 100% for the first, 96% for the second.

First: Br.Cc1ccc(NC(=O)Cc2csc(=Nc3ccc(OC(F)(F)F)cc3)n2C)cc1 [Compound 47, 2-(4-trifluoromethoxyphenylimino)-3-methyl-4-[N-(4-methylphenyl)carbamoylmethyl]-1,3-thiazol-4-ine hydrobromide]
Second: Br.Cn1c(CC(=O)Nc2cccc(Cl)c2)csc1=Nc1ccc(OC(F)(F)F)cc1 [Compound 58, 2-(4-trifluoromethoxyphenylimino)-3-methyl-4-[N-(3-chlorophenyl)carbamoylmethyl]-1,3-thiazol-4-ine hydrobromide]
The “Inhibiting Ratio (%) (at 250 ppm)” value of the first is higher: 100% for the first, 96% for the second.

Going from `Br.Cc1ccc(NC(=O)Cc2csc(=Nc3cccc(F)c3)n2C)cc1` [Compound 48, 2-(3-fluorophenylimino)-3-methyl-4-[N-(4-methylphenyl)carbamoylmethyl]-1,3-thiazol-4-ine hydrobromide] to `Br.Cn1c(CC(=O)Nc2cccc(Cl)c2)csc1=Nc1cccc(F)c1` [Compound 59, 2-(3-fluorophenylimino)-3-methyl-4-[N-(3-chlorophenyl)carbamoylmethyl]-1,3-thiazoyl-4-ine hydrobromide], the “Inhibiting Ratio (%) (at 250 ppm)” value falls from 100% to 96%.

`Br.Cc1ccc(NC(=O)Cc2csc(=Nc3ccc(Cl)cc3Cl)n2C)cc1` [Compound 49, 2-(2,4-dichlorophenylimino)-3-methyl-4-[N-(4-methylphenyl)carbamoylmethyl]-1,3-thiazol-4-ine hydrobromide] and `Br.Cc1ccc(NC(=O)Cc2csc(=Nc3ccc(Cl)cc3F)n2C)cc1` [Compound 50, 2-(4-chloro-2-fluorophenylimino)-3-methyl-4-[N-(4-methylphenyl)carbamoylmethyl]-1,3-thiazol-4-ine hydrobromide] are the same in “Inhibiting Ratio (%) (at 250 ppm)” value: 100% for the first, 100% for the second.

Compared with `Br.Cc1ccc(NC(=O)Cc2csc(=Nc3ccc(Cl)c(C(F)(F)F)c3)n2C)cc1` [Compound 53, 2-(4-chloro-3-trifluoromethylphenylimino)-3-methyl-4-[N-(4-methylphenyl)carbamoylmethyl]-1,3-thiazol-4-ine hydrobromide], `Br.Cc1ccc(NC(=O)Cc2csc(=Nc3ccc([N+](=O)[O-])cc3F)n2C)cc1` [Compound 55, 2-(2-fluoro-4-nitrophenylimino)-3-methyl-4-[N-(4-methylphenyl)carbamoylmethyl]-1,3-thiazol-4-ine hydrobromide] is lower in “Inhibiting Ratio (%) (at 250 ppm)” value: 99% for the first, 96% for the second.

First: Br.CCCCc1ccc(N=c2scc(CC(=O)Nc3cccc(Cl)c3)n2C)cc1 [Compound 56, 2-[4-(n-butyl)phenylimino]-3-methyl-4-[N-(3-chlorophenyl)carbamoylmethyl]-1,3-thiazol-4-ine hydrobromide]
Second: Br.Cc1ccc(N=c2scc(CC(=O)Nc3cccc(Cl)c3)n2C)cc1Cl [Compound 62, 2-(3-chloro-4-methylphenylimino)-3-methyl-4-[N-(3-chlorophenyl)carbamoylmethyl]-1,3-thiazol-4-ine hydrobromide]
The “Inhibiting Ratio (%) (at 250 ppm)” value of the first is lower: 96% for the first, 100% for the second.

Compared with `Br.COc1ccccc1N=c1scc(CC(=O)Nc2cccc(C(F)(F)F)c2)n1C` [Compound 65, 2-(2-methoxyphenylimino)-3-methyl-4-[N-(3-trifluoromethylphenyl)carbamoylmethyl]-1,3-thiazol-4-ine hydrobromide], `Br.Cn1c(CC(=O)Nc2cccc(Cl)c2)csc1=Nc1ccc(F)cc1F` [Compound 68, 2-(2,4-difluorophenylimino)-3-methyl-4-[N-(3-chlorophenyl)carbamoylmethyl]-1,3-thiazol-4-ine hydrobromide] is lower in “Inhibiting Ratio (%) (at 250 ppm)” value: 98% for the first, 95% for the second.

Going from `Br.Cn1c(CC(=O)Nc2cccc(Cl)c2)csc1=Nc1ccc(Cl)cc1F` [Compound 66, 2-(4-chloro-2-fluorophenylimino)-3-methyl-4-[N-(3-chlorophenyl)carbamoylmethyl]-1,3-thiazol-4-ine hydrobromide] to `Br.Cc1ccc(N=c2scc(CC(=O)Nc3cccc(Cl)c3)n2C)c(F)c1` [Compound 67, 2-(2-fluoro-4-methylphenylimino)-3-methyl-4-[N-(3-chlorophenyl)carbamoylmethyl]-1,3-thiazol-4-ine hydrobromide], the “Inhibiting Ratio (%) (at 250 ppm)” value rises from 96% to 100%.

`Br.CC(C)Oc1cc(N=c2scc(CC(=O)Nc3ccccc3)n2C)c(F)cc1Cl` [Compound 69, 2-(4-chloro-2-fluoro-5-isoproxyphenylimino)-3-methyl-4-(N-phenylcarbamoylmethyl)-1,3-thiazol-4-ine hydrobromide] was tested, and the “Inhibiting Ratio (%) (at 250 ppm)” value was 96%.

Same assay, conditions: hydrobromide

For `Br.Cc1cc(Cl)ccc1N=c1scc(CC(=O)Nc2cccc(Cl)c2)n1C` [Compound 61, 2-(4-chloro-2-methylphenylimino)-3-methyl-4-[N-(3-chlorophenyl)carbamoylmethyl]-1,3-thiazol-4-ine hydrobromide], the “Inhibiting Ratio (%) (at 250 ppm)” value was 100%.
`Br.Cc1cc(Cl)ccc1N=c1scc(CC(=O)Nc2cccc(Cl)c2)n1C` [Compound 63, 2-(4-chloro-2-methylphenylimino)-3-methyl-4-[N-(3-chlorophenyl)carbamoylmethyl]-1,3-thiazol-4-ine hydrobromide] was tested, and the “Inhibiting Ratio (%) (at 250 ppm)” value was 96%.
